Measurements taken from ChEMBL document CHEMBL5291721, “A preclinical secondary pharmacology resource illuminates target-adverse drug reaction associations of marketed drugs” (Nat Commun, 2023).

Columns and labels:
Adenosine receptor A2a = Adenosine receptor A2a (Homo sapiens, UniProt P29274)
[1] = target: T1, Alpha-2A adrenergic receptor (Homo sapiens, UniProt P08913); assay type: functional, cell-based
T1 sequence (P08913 whole entry): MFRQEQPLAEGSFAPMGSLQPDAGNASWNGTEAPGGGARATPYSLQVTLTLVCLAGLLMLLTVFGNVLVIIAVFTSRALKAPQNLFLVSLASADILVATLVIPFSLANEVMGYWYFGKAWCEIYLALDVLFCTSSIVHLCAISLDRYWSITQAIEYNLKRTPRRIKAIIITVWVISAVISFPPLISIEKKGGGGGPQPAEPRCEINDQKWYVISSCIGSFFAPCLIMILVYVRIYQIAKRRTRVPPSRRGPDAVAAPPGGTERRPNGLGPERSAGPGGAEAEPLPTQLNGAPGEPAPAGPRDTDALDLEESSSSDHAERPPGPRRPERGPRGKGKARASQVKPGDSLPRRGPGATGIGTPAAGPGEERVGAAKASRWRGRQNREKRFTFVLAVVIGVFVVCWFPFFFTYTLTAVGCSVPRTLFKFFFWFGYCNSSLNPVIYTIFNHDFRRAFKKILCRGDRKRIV

[2] = target: Neuronal acetylcholine receptor subunit alpha-4 (Homo sapiens, UniProt P43681)
Neuronal acetylcholine receptor subunit alpha-4, sequence (P43681 whole entry): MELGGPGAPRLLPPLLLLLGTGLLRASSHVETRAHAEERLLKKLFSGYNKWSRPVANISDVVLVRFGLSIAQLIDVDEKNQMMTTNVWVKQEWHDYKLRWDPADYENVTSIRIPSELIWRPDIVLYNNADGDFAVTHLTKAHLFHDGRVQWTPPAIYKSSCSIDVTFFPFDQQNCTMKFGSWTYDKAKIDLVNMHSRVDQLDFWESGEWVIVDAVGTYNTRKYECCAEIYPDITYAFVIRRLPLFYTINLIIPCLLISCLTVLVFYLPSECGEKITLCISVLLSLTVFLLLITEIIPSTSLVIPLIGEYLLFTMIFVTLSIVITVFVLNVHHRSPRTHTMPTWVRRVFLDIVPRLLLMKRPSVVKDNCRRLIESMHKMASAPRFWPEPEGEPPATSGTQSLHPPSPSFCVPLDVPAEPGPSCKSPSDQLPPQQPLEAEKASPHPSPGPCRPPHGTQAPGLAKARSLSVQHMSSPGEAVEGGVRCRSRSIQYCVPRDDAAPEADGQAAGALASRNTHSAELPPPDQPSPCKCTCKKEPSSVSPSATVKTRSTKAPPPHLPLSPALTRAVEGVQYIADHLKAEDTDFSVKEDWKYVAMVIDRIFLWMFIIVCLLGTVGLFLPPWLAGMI

Cannabinoid receptor 1 = Cannabinoid receptor 1 (Homo sapiens, UniProt P21554); assay type: functional, cell-based
Cannabinoid receptor 1, sequence (P21554 whole entry): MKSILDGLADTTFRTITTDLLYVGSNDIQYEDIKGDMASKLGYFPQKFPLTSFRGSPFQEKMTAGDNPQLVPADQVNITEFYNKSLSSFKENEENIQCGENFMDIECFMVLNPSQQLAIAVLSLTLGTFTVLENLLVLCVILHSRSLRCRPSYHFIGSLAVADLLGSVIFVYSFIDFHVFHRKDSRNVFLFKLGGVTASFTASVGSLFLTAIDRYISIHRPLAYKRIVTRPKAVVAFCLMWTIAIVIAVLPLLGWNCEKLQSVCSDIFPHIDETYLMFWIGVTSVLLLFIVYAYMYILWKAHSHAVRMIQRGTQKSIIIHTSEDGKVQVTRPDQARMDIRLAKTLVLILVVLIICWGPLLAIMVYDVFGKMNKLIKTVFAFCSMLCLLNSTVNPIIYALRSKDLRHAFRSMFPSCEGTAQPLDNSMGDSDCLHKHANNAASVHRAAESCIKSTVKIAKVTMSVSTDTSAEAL

D(1A) dopamine receptor = D(1A) dopamine receptor (Homo sapiens, UniProt P21728); assay type: functional, cell-based
D(1A) dopamine receptor, sequence (P21728 whole entry): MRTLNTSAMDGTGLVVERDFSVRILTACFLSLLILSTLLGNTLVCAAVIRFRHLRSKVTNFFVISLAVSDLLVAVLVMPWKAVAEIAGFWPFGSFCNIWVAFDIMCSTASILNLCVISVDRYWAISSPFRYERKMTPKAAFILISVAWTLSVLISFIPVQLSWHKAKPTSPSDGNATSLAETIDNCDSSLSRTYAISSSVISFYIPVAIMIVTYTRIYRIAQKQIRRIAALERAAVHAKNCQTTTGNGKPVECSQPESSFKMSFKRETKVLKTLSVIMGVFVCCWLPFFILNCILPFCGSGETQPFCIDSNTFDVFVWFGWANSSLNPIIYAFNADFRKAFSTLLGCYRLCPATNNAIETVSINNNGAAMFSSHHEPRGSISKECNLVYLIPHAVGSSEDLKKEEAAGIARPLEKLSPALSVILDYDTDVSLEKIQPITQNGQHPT

[3] = target: Glutamate receptor ionotropic, NMDA 1 (Rattus norvegicus, UniProt P35439)
[4] = target: T2, 5-hydroxytryptamine receptor 1A (Homo sapiens, UniProt P08908); assay type: functional, cell-based
T2 sequence (P08908 whole entry): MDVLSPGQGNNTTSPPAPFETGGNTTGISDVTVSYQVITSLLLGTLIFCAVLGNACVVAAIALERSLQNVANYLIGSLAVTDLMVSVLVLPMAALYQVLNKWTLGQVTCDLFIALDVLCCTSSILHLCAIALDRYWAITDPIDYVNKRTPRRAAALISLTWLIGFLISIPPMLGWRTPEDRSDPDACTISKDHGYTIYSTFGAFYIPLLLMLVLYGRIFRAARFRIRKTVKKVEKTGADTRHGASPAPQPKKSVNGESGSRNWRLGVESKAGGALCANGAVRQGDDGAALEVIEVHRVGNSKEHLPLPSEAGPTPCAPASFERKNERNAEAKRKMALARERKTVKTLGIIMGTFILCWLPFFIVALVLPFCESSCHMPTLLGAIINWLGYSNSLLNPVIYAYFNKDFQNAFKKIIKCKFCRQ

[5] = target: 5-hydroxytryptamine receptor 2B (Homo sapiens, UniProt P41595); assay type: functional, cell-based
5-hydroxytryptamine receptor 2B, sequence (P41595 whole entry): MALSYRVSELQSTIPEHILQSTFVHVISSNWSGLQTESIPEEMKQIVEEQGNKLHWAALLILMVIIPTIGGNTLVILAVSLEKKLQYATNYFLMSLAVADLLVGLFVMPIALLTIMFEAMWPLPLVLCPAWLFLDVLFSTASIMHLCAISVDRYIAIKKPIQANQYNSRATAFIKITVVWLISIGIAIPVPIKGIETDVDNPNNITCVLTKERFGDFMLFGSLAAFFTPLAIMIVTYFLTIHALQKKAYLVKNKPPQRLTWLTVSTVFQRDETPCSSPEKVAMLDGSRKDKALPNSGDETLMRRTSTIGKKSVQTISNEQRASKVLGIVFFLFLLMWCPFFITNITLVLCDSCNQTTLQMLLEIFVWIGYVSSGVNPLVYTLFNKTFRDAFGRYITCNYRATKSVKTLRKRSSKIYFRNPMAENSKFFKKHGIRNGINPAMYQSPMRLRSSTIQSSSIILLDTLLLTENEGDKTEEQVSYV

[6] = target: T3, Neuropeptide Y receptor type 1 (Homo sapiens, UniProt P25929)
T3 sequence (P25929 whole entry): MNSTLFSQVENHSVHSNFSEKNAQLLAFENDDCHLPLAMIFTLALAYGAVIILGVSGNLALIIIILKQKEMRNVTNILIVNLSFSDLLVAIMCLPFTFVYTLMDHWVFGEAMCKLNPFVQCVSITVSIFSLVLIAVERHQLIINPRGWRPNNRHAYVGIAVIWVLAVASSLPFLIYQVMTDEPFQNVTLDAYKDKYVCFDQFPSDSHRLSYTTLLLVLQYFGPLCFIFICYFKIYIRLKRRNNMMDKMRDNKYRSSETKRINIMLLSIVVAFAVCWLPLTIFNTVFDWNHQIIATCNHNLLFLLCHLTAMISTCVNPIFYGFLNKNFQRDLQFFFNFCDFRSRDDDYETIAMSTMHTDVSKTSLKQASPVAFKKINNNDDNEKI

Mu-type opioid receptor = Mu-type opioid receptor (Homo sapiens, UniProt P35372); experiment: biochemical; assay type: functional
Mu-type opioid receptor, sequence (P35372 whole entry): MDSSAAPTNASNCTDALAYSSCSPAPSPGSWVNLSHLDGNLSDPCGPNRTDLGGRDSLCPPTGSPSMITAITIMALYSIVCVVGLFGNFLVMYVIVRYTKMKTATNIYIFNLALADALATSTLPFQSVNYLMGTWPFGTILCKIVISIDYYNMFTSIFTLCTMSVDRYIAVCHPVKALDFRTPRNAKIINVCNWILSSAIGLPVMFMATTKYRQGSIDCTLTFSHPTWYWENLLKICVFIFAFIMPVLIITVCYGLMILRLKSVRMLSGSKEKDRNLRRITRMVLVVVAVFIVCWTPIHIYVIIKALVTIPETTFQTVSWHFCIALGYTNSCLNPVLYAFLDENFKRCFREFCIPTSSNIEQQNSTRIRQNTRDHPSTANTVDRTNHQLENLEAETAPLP

[7] = target: 3',5'-cyclic-AMP phosphodiesterase 4D (Homo sapiens, UniProt Q08499); assay type: functional
3',5'-cyclic-AMP phosphodiesterase 4D, sequence (Q08499 whole entry): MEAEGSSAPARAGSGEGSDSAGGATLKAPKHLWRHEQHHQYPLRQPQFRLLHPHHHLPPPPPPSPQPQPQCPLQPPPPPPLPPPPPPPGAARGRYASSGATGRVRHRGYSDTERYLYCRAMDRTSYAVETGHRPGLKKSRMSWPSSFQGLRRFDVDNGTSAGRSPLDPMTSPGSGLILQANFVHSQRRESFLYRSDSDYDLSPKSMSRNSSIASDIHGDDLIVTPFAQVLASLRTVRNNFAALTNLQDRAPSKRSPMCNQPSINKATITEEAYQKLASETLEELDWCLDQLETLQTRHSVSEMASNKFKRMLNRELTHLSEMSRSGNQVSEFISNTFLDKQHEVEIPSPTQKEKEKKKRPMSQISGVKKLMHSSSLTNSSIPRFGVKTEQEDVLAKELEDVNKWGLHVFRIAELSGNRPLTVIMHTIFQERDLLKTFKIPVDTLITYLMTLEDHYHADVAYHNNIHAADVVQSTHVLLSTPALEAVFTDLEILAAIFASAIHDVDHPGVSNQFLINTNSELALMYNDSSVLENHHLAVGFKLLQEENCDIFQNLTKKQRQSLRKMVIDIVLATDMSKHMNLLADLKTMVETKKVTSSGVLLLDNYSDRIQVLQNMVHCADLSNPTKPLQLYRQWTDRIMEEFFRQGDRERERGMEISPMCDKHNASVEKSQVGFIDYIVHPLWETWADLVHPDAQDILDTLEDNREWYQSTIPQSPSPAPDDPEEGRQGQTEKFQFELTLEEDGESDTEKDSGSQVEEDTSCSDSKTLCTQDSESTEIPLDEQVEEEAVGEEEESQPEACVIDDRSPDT

D(3) dopamine receptor = D(3) dopamine receptor (Homo sapiens, UniProt P35462)
D(3) dopamine receptor, sequence (P35462 whole entry): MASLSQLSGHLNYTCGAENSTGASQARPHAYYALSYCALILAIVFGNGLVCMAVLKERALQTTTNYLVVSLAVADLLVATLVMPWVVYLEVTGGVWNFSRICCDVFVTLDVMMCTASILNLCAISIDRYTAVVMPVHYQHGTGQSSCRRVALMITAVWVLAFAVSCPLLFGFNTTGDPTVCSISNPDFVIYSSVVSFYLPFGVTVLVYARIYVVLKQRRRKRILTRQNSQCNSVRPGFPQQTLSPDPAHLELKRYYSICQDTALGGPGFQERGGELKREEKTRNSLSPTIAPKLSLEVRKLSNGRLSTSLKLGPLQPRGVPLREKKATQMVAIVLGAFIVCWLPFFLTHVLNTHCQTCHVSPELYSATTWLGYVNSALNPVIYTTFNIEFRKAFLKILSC

[8] = target: T4, Alpha-1A adrenergic receptor (Homo sapiens, UniProt P35348); assay type: functional, cell-based
T4 sequence (P35348 whole entry): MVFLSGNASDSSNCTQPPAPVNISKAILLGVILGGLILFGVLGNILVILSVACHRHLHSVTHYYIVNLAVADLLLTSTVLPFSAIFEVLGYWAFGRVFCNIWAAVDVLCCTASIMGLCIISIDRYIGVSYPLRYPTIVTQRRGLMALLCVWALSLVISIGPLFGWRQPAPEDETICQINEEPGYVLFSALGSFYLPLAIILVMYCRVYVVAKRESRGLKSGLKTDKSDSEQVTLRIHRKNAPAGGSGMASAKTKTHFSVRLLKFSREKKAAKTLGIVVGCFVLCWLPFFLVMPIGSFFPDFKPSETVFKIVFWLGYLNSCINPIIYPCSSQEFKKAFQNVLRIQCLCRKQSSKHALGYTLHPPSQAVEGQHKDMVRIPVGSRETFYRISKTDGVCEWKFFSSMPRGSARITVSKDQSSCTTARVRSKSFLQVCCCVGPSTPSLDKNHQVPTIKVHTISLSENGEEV
Further: assay procedure not described here.

Adenosine receptor A2a, sequence (P29274 whole entry): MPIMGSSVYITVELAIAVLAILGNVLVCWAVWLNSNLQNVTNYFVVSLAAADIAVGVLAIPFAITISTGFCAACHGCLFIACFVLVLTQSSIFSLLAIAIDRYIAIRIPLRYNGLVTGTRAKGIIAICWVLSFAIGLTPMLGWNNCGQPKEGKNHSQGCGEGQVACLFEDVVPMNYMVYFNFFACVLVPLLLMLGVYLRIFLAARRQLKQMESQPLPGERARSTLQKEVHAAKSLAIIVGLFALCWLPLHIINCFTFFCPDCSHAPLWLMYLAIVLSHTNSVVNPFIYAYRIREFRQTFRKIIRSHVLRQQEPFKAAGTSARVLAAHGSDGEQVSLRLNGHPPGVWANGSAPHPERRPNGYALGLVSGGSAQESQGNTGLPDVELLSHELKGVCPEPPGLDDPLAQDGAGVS

| SMILES | AC50 (Adenosine receptor A2a) [µM] | AC50 [1] [µM] | AC50 [2] [µM] | AC50 (Cannabinoid receptor 1) [µM] | AC50 (D(1A) dopamine receptor) [µM] | AC50 [3] [µM] | AC50 [4] [µM] | AC50 [5] [µM] | AC50 [6] [µM] | AC50 (Mu-type opioid receptor) [µM] | AC50 [7] [µM] | AC50 (D(3) dopamine receptor) [µM] | AC50 [8] [µM] |
| --- | --- | --- | --- | --- | --- | --- | --- | --- | --- | --- | --- | --- | --- |
| CC(C)(C)NCC(O)c1cc(Cl)c(N)c(Cl)c1 (stereo unspecified) [CLENBUTEROL] | > 30 | > 30 | > 30 | > 30 | > 30 | > 30 | 3.02 | > 30 | > 30 | > 30 | > 30 | > 30 | > 30 |
| Nc1nc2c(c(=O)[nH]1)N(C=O)C(CNc1ccc(C(=O)N[C@@H](CCC(=O)O)C(=O)O)cc1)CN2 (stereo partly specified) [LEUCOVORIN] | > 30 | > 30 | > 30 | > 30 | > 30 | > 30 | > 30 | > 30 | > 30 | > 30 | > 30 | > 30 | > 30 |
| CC(C)OC(=O)C(C(=O)OC(C)C)=C1SC=CS1 [MALOTILATE] | > 30 | > 30 | > 30 | > 30 | > 30 | > 30 | > 30 | > 30 | > 30 | > 30 | 4.2 | > 30 | 28 |
| CCN(CC)CC(=O)Oc1ccc(NC(C)=O)cc1 [PROPACETAMOL] | > 30 | > 30 | > 30 | > 30 | > 30 | > 30 | > 30 | > 30 | > 30 | > 30 | > 30 | > 30 | > 30 |
| CC(C)(C)NC[C@H](O)COc1nsnc1N1CCOCC1 [TIMOLOL] | > 30 | > 30 | > 30 | > 30 | > 30 | > 30 | > 30 | > 30 | > 30 | > 30 | > 30 | > 30 | > 30 |

Next, values leading:

| AC50 (Adenosine receptor A2a) [µM] | AC50 [1] [µM] | AC50 [2] [µM] | AC50 (Cannabinoid receptor 1) [µM] | AC50 (D(1A) dopamine receptor) [µM] | AC50 [3] [µM] | AC50 [4] [µM] | AC50 [5] [µM] | AC50 [6] [µM] | AC50 (Mu-type opioid receptor) [µM] | AC50 [7] [µM] | AC50 (D(3) dopamine receptor) [µM] | AC50 [8] [µM] | SMILES |
| --- | --- | --- | --- | --- | --- | --- | --- | --- | --- | --- | --- | --- | --- |
| > 30 | 6.1 | > 30 | > 30 | > 30 | > 30 | > 30 | > 30 | > 30 | > 30 | > 30 | > 30 | > 30 | COc1cc(OC)c(C(=O)CCCN2CCCC2)c(OC)c1 [BUFLOMEDIL] |
| > 30 | > 30 | > 30 | > 30 | > 30 | > 30 | > 30 | > 30 | > 30 | > 30 | > 30 | > 30 | > 30 | COc1c(O[C@@H]2O[C@H](CO)[C@@H](O)[C@H](O)[C@H]2O)cc2c(c1OC)-c1ccc(SC)c(=O)cc1[C@@H](NC(C)=O)CC2 [THIOCOLCHICOSIDE] |
